Measured values reported in patent publication US20260078130A1, “NAMPT MODULATORS, PREPARATIONS, AND USES THEREOF” (SIRONAX LTD., priority 2022, published 2026).

Target: T1, human enzyme NAMPT (full length) (Homo sapiens, UniProt P43490)
T1 construct: human enzyme NAMPT (full length)
Test: NMN fluorescence biochemical assay (stimulation of NMN synthesis by NAMPT)
Details: for EC50: NMN fluorescence assay, purified human NAMPT 100 nM, concentration giving half-maximal activation, read-out: Enzymatic EC50; for Enzymatic Emax: fold change of maximal activation compared to DMSO
Procedure, shortened: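 Full-length human NAMPT (100 nM) was preincubated 15 min at 37 °C with compound in 50 mM Tris-HCl pH 7.5, 10 mM MgCl2, 2 mM DTT, then reacted 1 h at 37 °C with 50 μM NAM, 100 μM PRPP, 4 mM ATP (stated solution concentrations). NMN was derivatised with acetophenone/KOH then formic acid and read at Ex/Em 382/445 nm; EC50 and Emax (fold over DMSO) reported.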

T1 sequence (P43490 whole entry): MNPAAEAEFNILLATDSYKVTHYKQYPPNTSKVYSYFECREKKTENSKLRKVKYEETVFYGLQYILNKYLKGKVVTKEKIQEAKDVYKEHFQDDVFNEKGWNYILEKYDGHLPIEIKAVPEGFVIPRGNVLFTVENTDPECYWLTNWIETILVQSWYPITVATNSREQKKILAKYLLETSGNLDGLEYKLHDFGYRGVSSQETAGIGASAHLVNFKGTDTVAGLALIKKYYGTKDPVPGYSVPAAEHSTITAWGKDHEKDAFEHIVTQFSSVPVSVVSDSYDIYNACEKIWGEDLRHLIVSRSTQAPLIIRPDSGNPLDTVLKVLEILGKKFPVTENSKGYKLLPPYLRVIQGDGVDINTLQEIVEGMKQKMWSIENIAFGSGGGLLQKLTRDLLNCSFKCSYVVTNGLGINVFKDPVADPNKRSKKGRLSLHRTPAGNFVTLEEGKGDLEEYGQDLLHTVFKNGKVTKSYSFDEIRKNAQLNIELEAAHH

Q: Which EC50 does the source give for `Cn1nc(Cl)c(Cl)c1CC1c2ccccc2C(=O)N1C[C@H]1C[C@@]2(CNC(=O)O2)C1` (some centres unmarked) [Compound 499, (2s,4s)-2-((1-((3,4-dichloro-1-methyl-1H-pyrazol-5-yl)methyl)-3-oxoisoindolin-2-yl)methyl)-5-oxa-7-azaspiro[3.4]octan-6-one] here?
A: The EC50 was < 0.5 µM.

Q: What about the “Enzymatic Emax” value of the same compound?
A: The value was “B (3≥B>2)”.

Q: What does the source list for `Cn1nc(Cl)c(Cl)c1CC1c2ccccc2C(=O)N1C[C@H]1C[C@@]2(CNC(=O)O2)C1` (some centres unmarked) [Compound 500, (2r,4r)-2-((1-((3,4-dichloro-1-methyl-1H-pyrazol-5-yl)methyl)-3-oxoisoindolin-2-yl)methyl)-5-oxa-7-azaspiro[3.4]octan-6-one]?
A: EC50: 0.5 to 5 µM; Enzymatic Emax: C (2≥C)

Q: For `Cn1cc(C#CCN2C(=O)c3ccccc3C2Cc2c(Cl)cnn2C)cn1` (centres unmarked) [Compound 501, 3-((4-chloro-1-methyl-1H-pyrazol-5-yl)methyl)-2-(3-(1-methyl-1H-pyrazol-4-yl)prop-2-yn-1-yl)isoindolin-1-one], which EC50 is on record?
A: The EC50 was 0.5 to 5 µM.

Q: And the “Enzymatic Emax” value?
A: The value was “C (2≥C)”.

Q: Which results are given for `Cn1ncc(Cl)c1CC1c2ccccc2C(=O)N1Cc1ccccc1` (centres unmarked) [Compound 502, 2-benzyl-3-((4-chloro-1-methyl-1H-pyrazol-5-yl)methyl)isoindolin-1-one]?
A: EC50: ≥ 5 µM; Enzymatic Emax: C (2≥C)

Q: With `Cc1ccc(CN2C(=O)c3ccccc3C2Cc2c(Cl)cnn2C)cc1` (centres unmarked) [Compound 503, 3-((4-chloro-1-methyl-1H-pyrazol-5-yl)methyl)-2-(4-methylbenzyl)isoindolin-1-one] as the compound, how does the EC50 read?
A: Its EC50 is ≥ 5 µM.

Q: What about the “Enzymatic Emax” value of the same compound?
A: The value was “C (2≥C)”.

Q: Which EC50 does the source give for `Cc1n[nH]cc1/C=C(/F)CN1C(=O)c2ccccc2C1Cc1c(Cl)cnn1C` (centres unmarked) [Compound 504, (E)-3-((4-chloro-1-methyl-1H-pyrazol-5-yl)methyl)-2-(2-fluoro-3-(3-methyl-1H-pyrazol-4-yl)allyl)isoindolin-1-one] here?
A: Its EC50 is 0.5 to 5 µM.

Q: What about the “Enzymatic Emax” value of the same compound?
A: Its value is “B (3≥B>2)”.

Q: Which EC50 does the source give for `O=C1c2ccccc2C(Cc2ncccc2Br)N1Cc1ncc(O)cn1` (centres unmarked) [Compound 505, 3-((3-bromopyridin-2-yl)methyl)-2-((5-hydroxypyrimidin-2-yl)methyl)isoindolin-1-one] here?
A: The EC50 was ≥ 5 µM.

Q: And the “Enzymatic Emax” value?
A: Its value is “C (2≥C)”.

Q: `Cc1cc(F)c2c(c1)C(Cc1c(Cl)cnn1C)N(CC1CC3(CNC(=O)O3)C1)C2=O` (centres unmarked) [Compound 506, 2-((1-((4-chloro-1-methyl-1H-pyrazol-5-yl)methyl)-4-fluoro-6-methyl-3-oxoisoindolin-2-yl)methyl)-5-oxa-7-azaspiro[3.4]octan-6-one] was tested. Which EC50 did it give?
A: Its EC50 is < 0.5 µM.

Q: What about the “Enzymatic Emax” value of the same compound?
A: Its value is “B (3≥B>2)”.

Q: For `Cn1ncc(Cl)c1CC1c2ccccc2C(=O)N1C[C@]1(F)C[C@]2(CNC(=O)O2)C1` (some centres unmarked) [Compound 507, (2s,4s)-2-((1-((4-chloro-1-methyl-1H-pyrazol-5-yl)methyl)-3-oxoisoindolin-2-yl)methyl)-2-fluoro-5-oxa-7-azaspiro[3.4]octan-6-one], which EC50 is on record?
A: Its EC50 is ≥ 5 µM.

Q: And the “Enzymatic Emax” value?
A: Its value is “B (3≥B>2)”.

Q: How did the EC50 turn out when `Cn1ncc(Cl)c1CC1c2ccccc2C(=O)N1CC1CC2(CN=C(NC#N)O2)C1` (centres unmarked) [Compound 520, N-(2-((1-((4-chloro-1-methyl-1H-pyrazol-5-yl)methyl)-3-oxoisoindolin-2-yl)methyl)-5-oxa-7-azaspiro[3.4]oct-6-en-6-yl)cyanamide] was run?
A: Its EC50 is ≥ 5 µM.

Q: What about the “Enzymatic Emax” value of the same compound?
A: Its value is “C (2≥C)”.

Q: Which results are given for `Cn1ncc(Cl)c1CC1c2ccccc2C(=O)N1C/C=C/c1nn[nH]c1Cl` (centres unmarked) [Compound 525, (E)-3-((4-chloro-1-methyl-1H-pyrazol-5-yl)methyl)-2-(3-(5-chloro-1H-1,2,3-triazol-4-yl)allyl)isoindolin-1-one]?
A: EC50: ≥ 5 µM; Enzymatic Emax: C (2≥C)

Q: Which results are given for `Cn1ncc(Cl)c1CC1c2ccccc2C(=O)N1Cc1ccc(OC(F)F)cc1` (centres unmarked) [Compound 528, 3-((4-chloro-1-methyl-1H-pyrazol-5-yl)methyl)-2-(4-(difluoromethoxy)benzyl)isoindolin-1-one]?
A: EC50: ≥ 5 µM; Enzymatic Emax: C (2≥C)

Q: For `COc1ccc(CN2C(=O)c3ccccc3C2Cc2c(Cl)cnn2C)nc1` (centres unmarked) [Compound 529, 3-((4-chloro-1-methyl-1H-pyrazol-5-yl)methyl)-2-((5-methoxypyridin-2-yl)methyl)isoindolin-1-one], which EC50 is on record?
A: Its EC50 is 0.5 to 5 µM.

Q: And the “Enzymatic Emax” value?
A: The value was “C (2≥C)”.

Q: What does the source list for `COc1ncc(CN2C(=O)c3ccccc3C2Cc2c(Cl)cnn2C)cc1F` (centres unmarked) [Compound 532, 3-((4-chloro-1-methyl-1H-pyrazol-5-yl)methyl)-2-((5-fluoro-6-methoxypyridin-3-yl)methyl)isoindolin-1-one]?
A: EC50: ≥ 5 µM; Enzymatic Emax: C (2≥C)

Q: What does the source list for `Cn1ncc(Cl)c1CC1c2ccccc2C(=O)N1CC1CC(=O)C1` (centres unmarked) [Compound 556, 3-((4-chloro-1-methyl-1H-pyrazol-5-yl)methyl)-2-((3-oxocyclobutyl)methyl)isoindolin-1-one]?
A: EC50: ≥ 5 µM; Enzymatic Emax: B (3≥B>2)

Q: What does the source list for `COc1c(F)cc(CN2C(=O)c3ccccc3C2Cc2c(Cl)cnn2C)cc1F` (centres unmarked) [Compound 560, 3-((4-chloro-1-methyl-1H-pyrazol-5-yl)methyl)-2-(3,5-difluoro-4-methoxybenzyl)isoindolin-1-one]?
A: EC50: ≥ 5 µM; Enzymatic Emax: B (3≥B>2)

Q: Which EC50 does the source give for `Cn1ncc(Cl)c1CC1c2ccccc2C(=O)N1Cc1ccc2ocnc2c1` (centres unmarked) [Compound 561, 2-(benzo[d]oxazol-5-ylmethyl)-3-((4-chloro-1-methyl-1H-pyrazol-5-yl)methyl)isoindolin-1-one] here?
A: The EC50 was ≥ 5 µM.

Q: What about the “Enzymatic Emax” value of the same compound?
A: Its value is “C (2≥C)”.

Q: How did the EC50 turn out when `Cn1ncc(Cl)c1CC1c2ccccc2C(=O)N1CC1CC2(COC2)C1` (centres unmarked) [Compound 564, 2-((2-oxaspiro[3.3]heptan-6-yl)methyl)-3-((4-chloro-1-methyl-1H-pyrazol-5-yl)methyl)isoindolin-1-one] was run?
A: The EC50 was ≥ 5 µM.

Q: And the “Enzymatic Emax” value?
A: The value was “C (2≥C)”.

Q: With `Cn1ncc(Cl)c1CC1c2ccccc2C(=O)N1Cc1ccc(F)cc1` (centres unmarked) [Compound 572, 3-((4-chloro-1-methyl-1H-pyrazol-5-yl)methyl)-2-(4-fluorobenzyl)isoindolin-1-one] as the compound, how does the EC50 read?
A: Its EC50 is ≥ 5 µM.

Q: What about the “Enzymatic Emax” value of the same compound?
A: Its value is “C (2≥C)”.

Q: How did the EC50 turn out when `Cn1ncc(Cl)c1CC1c2ccccc2C(=O)N1Cc1ccc(Br)cc1` (centres unmarked) [Compound 575, 2-(4-bromobenzyl)-3-((4-chloro-1-methyl-1H-pyrazol-5-yl)methyl)isoindolin-1-one] was run?
A: Its EC50 is 0.5 to 5 µM.

Q: And the “Enzymatic Emax” value?
A: Its value is “C (2≥C)”.

Q: Which EC50 does the source give for `CC(=O)c1ccc(CN2C(=O)c3ccccc3C2Cc2c(Cl)cnn2C)cc1` (centres unmarked) [Compound 584, 2-(4-acetylbenzyl)-3-((4-chloro-1-methyl-1H-pyrazol-5-yl)methyl)isoindolin-1-one] here?
A: The EC50 was 0.5 to 5 µM.

Q: And the “Enzymatic Emax” value?
A: Its value is “B (3≥B>2)”.

Q: How did the EC50 turn out when `Cn1ncc(Cl)c1CC1c2ccccc2C(=O)N1Cc1ccc2c(cnn2C)c1` (centres unmarked) [Compound 586, 3-((4-chloro-1-methyl-1H-pyrazol-5-yl)methyl)-2-((1-methyl-1H-indazol-5-yl)methyl)isoindolin-1-one] was run?
A: The EC50 was ≥ 5 µM.

Q: What about the “Enzymatic Emax” value of the same compound?
A: Its value is “C (2≥C)”.

Q: `Cn1ncc(Cl)c1CC1c2ccccc2C(=O)N1CC1CC2(C1)OC(=O)NC2=O` (centres unmarked) [Compound 587, 2-((1-((4-chloro-1-methyl-1H-pyrazol-5-yl)methyl)-3-oxoisoindolin-2-yl)methyl)-5-oxa-7-azaspiro[3.4]octane-6,8-dione] was tested. Which EC50 did it give?
A: Its EC50 is ≥ 5 µM.

Q: And the “Enzymatic Emax” value?
A: The value was “C (2≥C)”.

Q: How did the EC50 turn out when `Cn1ncc(Cl)c1CC1c2ccccc2C(=O)N1Cc1ccc2[nH]c(=S)oc2c1` (centres unmarked) [Compound 626, 3-((4-chloro-1-methyl-1H-pyrazol-5-yl)methyl)-2-((2-thioxo-2,3-dihydrobenzo[d]oxazol-6-yl)methyl)isoindolin-1-one] was run?
A: The EC50 was ≥ 5 µM.
